Measured values reported in ChEMBL document CHEMBL1201862, “PubChem BioAssay data set” (2004).
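Each compound was tested at five concentrations against cells in 96-well plates for 48 hours. GI50 is the concentration that inhibits growth by half.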 Active and inactive are the calls of the source. No stated cut-off is given here; in the data, active = GI50 up to about 1.1 µM and inactive = higher.

What was measured:
Assay in all cases: DTP human tumour cell line panel, 48 h
COLO 205 = test system: COLO 205
UO-31 = test system: UO-31
SK-MEL-5 = test system: SK-MEL-5
U-251 = test system: U-251
SN12C = test system: SN12C
KM12 = test system: KM12
HL-60 = test system: HL-60
IGROV-1 = test system: IGROV-1
CCRF-CEM = test system: CCRF-CEM
HCT-15 = test system: HCT-15
LOX IMVI = test system: LOX IMVI
SF-268 = test system: SF-268
OVCAR-3 = test system: OVCAR-3
HOP-62 = test system: HOP-62
Malme-3M = test system: Malme-3M
RXF 393 = test system: RXF 393
A498 = test system: A498

With `N#Cc1ccc(C(C2C(=O)NC(=O)NC2=O)C2C(=O)NC(=O)NC2=O)cc1` the GI50 (COLO 205) was > 100 µM (inactive), the GI50 (UO-31) was > 100 µM (inactive) and the GI50 (SK-MEL-5) was > 100 µM (inactive). For the same molecule, the GI50 (U-251) was > 100 µM (inactive), the GI50 (SN12C) was > 100 µM (inactive) and the GI50 (KM12) was > 100 µM (inactive). For the same molecule, the GI50 (HL-60) was > 100 µM (inactive), the GI50 (IGROV-1) was > 100 µM (inactive) and the GI50 (CCRF-CEM) was > 100 µM (inactive). For the same molecule, the GI50 (HCT-15) was greater than 100 µM, the GI50 (LOX IMVI) was > 100 µM (inactive) and the GI50 (SF-268) was > 100 µM (inactive). The GI50 (OVCAR-3) was > 100 µM (inactive), the GI50 (HOP-62) was > 100 µM (inactive) and the GI50 (Malme-3M) was > 100 µM (inactive).

With `CCN1CCN(c2ccc(Nc3ccnc4ccc5nn(C)nc5c34)cc2)CC1` the GI50 (COLO 205) was 5.08 µM (inactive), the GI50 (UO-31) was 12.8 µM (inactive) and the GI50 (SK-MEL-5) was 15.2 µM (inactive). The GI50 (RXF 393) was 10.2 µM (inactive), the GI50 (U-251) was 13.5 µM (inactive) and the GI50 (SN12C) was 10.7 µM (inactive). For the same molecule, the GI50 (KM12) was 10.7 µM (inactive), the GI50 (HL-60) was 94.8 µM (inactive) and the GI50 (IGROV-1) was 18.6 µM (inactive). For the same molecule, the GI50 (CCRF-CEM) was > 100 µM (inactive), the GI50 (HCT-15) was 13.8 µM and the GI50 (LOX IMVI) was 7.18 µM (inactive). The GI50 (SF-268) was 14.9 µM (inactive), the GI50 (OVCAR-3) was 13.5 µM (inactive) and the GI50 (HOP-62) was 13.1 µM (inactive). The GI50 (Malme-3M) was 16.9 µM (inactive).

With `COC1OC(OC)C2C(c3c(C)cc(C)cc3C)=NOC12` (stereo not drawn) the GI50 (COLO 205) was > 100 µM (inactive), the GI50 (UO-31) was > 100 µM (inactive) and the GI50 (SK-MEL-5) was > 100 µM (inactive). The GI50 (RXF 393) was > 100 µM (inactive), the GI50 (U-251) was 20.3 µM (inactive) and the GI50 (KM12) was > 100 µM (inactive). The GI50 (HL-60) was > 100 µM (inactive), the GI50 (IGROV-1) was > 100 µM (inactive) and the GI50 (CCRF-CEM) was > 100 µM (inactive). The GI50 (HCT-15) was greater than 100 µM, the GI50 (LOX IMVI) was > 100 µM (inactive) and the GI50 (SF-268) was > 100 µM (inactive). The GI50 (OVCAR-3) was > 100 µM (inactive), the GI50 (HOP-62) was 2.13 µM (inactive) and the GI50 (Malme-3M) was > 100 µM (inactive).

`N#CC(C(=O)/C(=N\Nc1nc(S)nn1N)C(C#N)c1ccc(Cl)cc1)c1ccc(Cl)cc1` (stereo not drawn) was tested, and the GI50 (COLO 205) was > 100 µM (inactive), the GI50 (UO-31) was > 100 µM (inactive) and the GI50 (RXF 393) was > 100 µM (inactive). For the same molecule, the GI50 (U-251) was > 100 µM (inactive), the GI50 (SN12C) was > 100 µM (inactive) and the GI50 (KM12) was > 100 µM (inactive). The GI50 (A498) was > 100 µM (inactive), the GI50 (IGROV-1) was > 100 µM (inactive) and the GI50 (HCT-15) was greater than 100 µM. For the same molecule, the GI50 (LOX IMVI) was > 100 µM (inactive), the GI50 (SF-268) was > 100 µM (inactive) and the GI50 (OVCAR-3) was > 100 µM (inactive). For the same molecule, the GI50 (HOP-62) was > 100 µM (inactive) and the GI50 (Malme-3M) was > 100 µM (inactive).

`COC(=O)/C(=N\Nc1nnc(C)n1N)C(C#N)c1ccc(Cl)cc1` (stereo not drawn) was tested, and the GI50 (COLO 205) was 95.1 µM (inactive), the GI50 (UO-31) was > 100 µM (inactive) and the GI50 (RXF 393) was > 100 µM (inactive). For the same molecule, the GI50 (U-251) was > 100 µM (inactive), the GI50 (SN12C) was > 100 µM (inactive) and the GI50 (KM12) was > 100 µM (inactive). The GI50 (A498) was > 100 µM (inactive), the GI50 (IGROV-1) was > 100 µM (inactive) and the GI50 (HCT-15) was greater than 100 µM. For the same molecule, the GI50 (LOX IMVI) was > 100 µM (inactive), the GI50 (SF-268) was > 100 µM (inactive) and the GI50 (OVCAR-3) was > 100 µM (inactive). The GI50 (HOP-62) was > 100 µM (inactive) and the GI50 (Malme-3M) was > 100 µM (inactive).

With `O=C(O)CCc1nn2c(nc1=O)sc1ccc3ccccc3c12` the GI50 (COLO 205) was > 100 µM (inactive), the GI50 (UO-31) was > 100 µM (inactive) and the GI50 (SK-MEL-5) was > 100 µM (inactive). The GI50 (RXF 393) was > 100 µM (inactive), the GI50 (U-251) was > 100 µM (inactive) and the GI50 (SN12C) was > 100 µM (inactive). The GI50 (HL-60) was > 100 µM (inactive), the GI50 (IGROV-1) was > 100 µM (inactive) and the GI50 (CCRF-CEM) was > 100 µM (inactive). The GI50 (HCT-15) was greater than 100 µM, the GI50 (LOX IMVI) was > 100 µM (inactive) and the GI50 (SF-268) was > 100 µM (inactive). For the same molecule, the GI50 (OVCAR-3) was > 100 µM (inactive), the GI50 (HOP-62) was > 100 µM (inactive) and the GI50 (Malme-3M) was > 100 µM (inactive).

In the case of `Cc1cc2c(=O)cc(-c3ccncc3)oc2c(C(N)=O)c1C`, the GI50 (COLO 205) is reported as > 100 µM (inactive), the GI50 (UO-31) is reported as > 100 µM (inactive) and the GI50 (RXF 393) is reported as > 100 µM (inactive). The GI50 (U-251) was > 100 µM (inactive), the GI50 (SN12C) was > 100 µM (inactive) and the GI50 (HL-60) was > 100 µM (inactive). The GI50 (IGROV-1) was > 100 µM (inactive), the GI50 (CCRF-CEM) was > 100 µM (inactive) and the GI50 (HCT-15) was greater than 100 µM. For the same molecule, the GI50 (LOX IMVI) was > 100 µM (inactive), the GI50 (SF-268) was > 100 µM (inactive) and the GI50 (OVCAR-3) was > 100 µM (inactive). For the same molecule, the GI50 (HOP-62) was > 100 µM (inactive) and the GI50 (Malme-3M) was > 100 µM (inactive).
